Measured values from patent US10889581B2, “Cyclopropyl fused thiazine derivatives as beta-secretase inhibitors and methods of use” (AMGEN INC., priority 2016, dated 2021).

Experiments:
Recombinant CatD = Recombinant CatD (Homo sapiens (Human), UniProt P07339); experiment: In vitro enzymatic Cathepsin D (CatD) FRET assay; format: biochemical; settings: pH 3.5, read-out: Cat D Enzyme IC50
human recombinant BACE2 = human recombinant BACE2 (Homo sapiens (Human), UniProt Q9Y5Z0); experiment: In vitro enzymatic BACE2 FRET assay; format: biochemical; settings: pH 4.5, read-out: BACE2 Enzyme IC50
BACE1 [1] = target: T1, BACE1 (Homo sapiens (Human), UniProt P56817); experiment: In vitro BACE1 cell-based assay (Aβ40 in conditioned medium of cells stably expressing APP, HTRF)
Experimental: In Vitro BACE1 Cell-Based Assay
The cell-based assay measures inhibition or reduction of Aβ40 in conditioned medium of test compound treated cells expressing amyloid precursor protein. Cells stably expressing Amyloid Precursor Protein (APP) were plated at a density of 45K cells/well in 384 well plates (Corning/BioCoat 354663). The test compounds were then added to cells in 22-point dose response concentrations with the starting concentration being 62.5 μM. The compounds were diluted from stock solutions in DMSO and the final DMSO concentration of the test compounds on cells was 0.625%. The cells were cultivated overnight at 37° C. and 5% CO2 in DMEM supplemented with 10% FBS. After 24 h of incubation with the test compounds, the conditioned media was collected and the Aβ40 levels were determined using HTRF (Homogeneous Time Resolved Fluorescence). The IC50 of the compound was calculated from the percent of control or percent inhibition of Aβ40 as a function of the concentration of the test compound.
The HTRF to detect Aβ40 was performed in 384 well plates (Costar 3658). The antibody pair that were used to detect Aβ40 from cell supernatants were ConfAb40 antibody (Amgen in-house) and biotinylated 6E10 (BIOLEGEND). As an alternative to ConfAb40, a commercially available antibody, Anti-beta Amyloid 1-40 antibody [BDI350] from Abcam, Cambridge, Mass. 02139-1517 (Product code: ab20068), may be used in this assay. The concentrations were 0.35 μg/mL of ConfAb40 antibody and 1.33 μg/mL of 6E10-biotinylated antibody, as well as 4.5 μg/mL of Streptavidin Allophycocyanin Conjugate (ThermoFisher Scientific) in HTRF Buffer ([…], 1% BSA, 0.5% Tween 20).
The conditioned media was incubated with above antibodies and Streptavidin Allophycocyanin Conjugate for 30-60 minutes at 23° C. The final readout was performed on Envision from PerkinElmer.
Target sequence in this assay (P56817 46-501, species assumed): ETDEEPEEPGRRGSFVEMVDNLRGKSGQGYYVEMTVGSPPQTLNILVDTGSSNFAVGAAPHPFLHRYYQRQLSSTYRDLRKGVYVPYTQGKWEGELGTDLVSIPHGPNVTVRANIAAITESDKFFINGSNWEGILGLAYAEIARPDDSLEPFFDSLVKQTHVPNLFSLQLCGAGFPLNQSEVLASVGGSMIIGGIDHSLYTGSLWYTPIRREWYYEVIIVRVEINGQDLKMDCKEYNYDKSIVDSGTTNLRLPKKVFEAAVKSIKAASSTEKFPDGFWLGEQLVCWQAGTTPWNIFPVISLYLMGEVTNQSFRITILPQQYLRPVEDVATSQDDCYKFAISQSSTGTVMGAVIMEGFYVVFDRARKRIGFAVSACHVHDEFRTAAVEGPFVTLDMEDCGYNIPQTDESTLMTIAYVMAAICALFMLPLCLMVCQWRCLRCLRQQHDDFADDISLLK

BACE1 [2] = target: T1, BACE1; experiment: In vitro enzymatic BACE1 FRET assay; format: biochemical; settings: pH 4.5, read-out: BACE1 Enzyme IC50
Target sequence in this assay (P56817 46-501): as the sequence (P56817 46-501, species assumed) above

[3] = Aβ40, 24 h incubation, read-out: BACE1 Cell IC50

human recombinant BACE2, sequence (Q9Y5Z0 63-518): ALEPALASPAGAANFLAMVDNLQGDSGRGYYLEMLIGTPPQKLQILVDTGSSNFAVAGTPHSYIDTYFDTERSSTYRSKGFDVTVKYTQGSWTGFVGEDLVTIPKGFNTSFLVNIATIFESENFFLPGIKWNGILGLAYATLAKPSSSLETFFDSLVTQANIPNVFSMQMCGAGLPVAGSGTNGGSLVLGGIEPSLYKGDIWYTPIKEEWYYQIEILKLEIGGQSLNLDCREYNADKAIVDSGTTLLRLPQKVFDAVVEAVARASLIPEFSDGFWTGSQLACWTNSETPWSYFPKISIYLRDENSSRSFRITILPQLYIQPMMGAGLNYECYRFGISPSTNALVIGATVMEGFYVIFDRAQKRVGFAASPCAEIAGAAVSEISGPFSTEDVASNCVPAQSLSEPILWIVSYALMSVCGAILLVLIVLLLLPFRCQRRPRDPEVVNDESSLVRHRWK
Recombinant CatD, sequence (P07339 65-412): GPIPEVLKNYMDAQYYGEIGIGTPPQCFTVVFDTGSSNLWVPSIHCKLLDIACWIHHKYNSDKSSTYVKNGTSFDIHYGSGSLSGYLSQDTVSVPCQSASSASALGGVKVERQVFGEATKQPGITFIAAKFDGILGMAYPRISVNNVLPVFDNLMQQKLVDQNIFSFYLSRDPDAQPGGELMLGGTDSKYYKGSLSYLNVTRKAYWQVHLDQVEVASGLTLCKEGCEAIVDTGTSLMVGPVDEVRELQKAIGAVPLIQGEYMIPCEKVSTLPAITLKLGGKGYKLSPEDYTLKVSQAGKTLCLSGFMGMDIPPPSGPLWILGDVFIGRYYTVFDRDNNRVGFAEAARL

SMILES	IC50 (Recombinant CatD) [µM]	IC50 (human recombinant BACE2) [nM]	IC50 (BACE1 [1]; [3]) [nM]	IC50 (BACE1 [2]) [nM]	IC50 (BACE1 [1]) [nM]
N#Cc1ccc(C#Cc2ccc(F)c([C@@]3(CF)N=C(N)S[C@@]4(CCC(=O)N5CCOCC5)C[C@H]43)c2)nc1 [Example 119, 6-((3-((1S,5S,6S)-3-amino-5-(fluoromethyl)-1-(3-morpholino-3-oxopropyl)-2-thia-4-azabicyclo[4.1.0]hept-3-en-5-yl)-4-fluorophenyl)ethynyl)nicotinonitrile]	188	126	60	49	
CC#CCOc1ccc(C#Cc2ccc(F)c([C@@]3(CF)N=C(N)S[C@@]4(CF)C[C@H]43)c2)nc1 [Example 105, (1S,5S,6S)-5-(5-((5-(but-2-yn-1-yloxy)pyridin-2-yl)ethynyl)-2-fluorophenyl)-1,5-bis(fluoromethyl)-2-thia-4-azabicyclo[4.1.0]hept-3-en-3-amine]	500	10300	746	96	
C#Cc1ccc(F)c([C@@]2(C)N=C(N)S[C@@]3(C(=O)N(C)C)C[C@H]32)c1 [Example 123d, (1S,5S,6S)-3-amino-5-(5-ethynyl-2-fluorophenyl)-N,N,5-trimethyl-2-thia-4-azabicyclo[4.1.0]hept-3-ene-1-carboxamide]	50.5	142	328	378	
N#C/C=C/[C@]12C[C@H]1[C@@](CF)(c1cc(C#Cc3ccc(C#N)cn3)ccc1F)N=C(N)S2 [Example 107, 6-((3-((1R,5S,6S)-3-amino-1-((E)-2-cyanovinyl)-5-(fluoromethyl)-2-thia-4-azabicyclo[4.1.0]hept-3-en-5-yl)-4-fluorophenyl)ethynyl)nicotinonitrile]	239	2550	372	47	
NC1=N[C@](CF)(c2cc(C#Cc3ccc(OCc4ncco4)cn3)ccc2F)[C@@H]2C[C@]2(CF)S1 [Example 108, (1S,5S,6S)-5-(2-fluoro-5-((5-(oxazol-2-ylmethoxy)pyridin-2-yl)ethynyl)phenyl)-1,5-bis(fluoromethyl)-2-thia-4-azabicyclo[4.1.0]hept-3-en-3-amine]	784	14100	2020	735	
CN(C)C(=O)/C=C/[C@]12C[C@H]1[C@@](CF)(c1cc(C#Cc3ccc(C#N)cn3)ccc1F)N=C(N)S2 [Example 112, (E)-3-((1R,5S,6S)-3-amino-5-(5-((5-cyanopyridin-2-yl)ethynyl)-2-fluorophenyl)-5-(fluoromethyl)-2-thia-4-azabicyclo[4.1.0]hept-3-en-1-yl)-N,N-dimethylacrylamide]	176	1590	139	25	
C[C@]1(c2cc(C#Cc3ccc(C#N)cn3)ccc2F)N=C(N)S[C@]2(CO)[C@H]1C2(F)F [Example 110, 6-((3-((1S,5S,6R)-3-amino-7,7-difluoro-1-(hydroxymethyl)-5-methyl-2-thia-4-azabicyclo[4.1.0]hept-3-en-5-yl)-4-fluorophenyl)ethynyl)nicotinonitrile]	1160	2080	355	47	
N#Cc1ccc(C#Cc2ccc(F)c([C@@]3(CF)N=C(N)S[C@@]4(CO)C[C@H]43)c2)nc1 [Example 100, 6-((3-((1S,5S,6S)-3-amino-5-(fluoromethyl)-1-(hydroxymethyl)-2-thia-4-azabicyclo[4.1.0]hept-3-en-5-yl)-4-fluorophenyl)ethynyl)nicotinonitrile]	4870	4550	129	80	
Cc1cc(C#N)cnc1C#Cc1ccc(F)c([C@@]2(CF)N=C(N)S[C@@]3(C(=O)N(C)C)C[C@H]32)c1 [Example 127, (1S,5S,6S)-3-amino-5-(5-((5-cyano-3-methylpyridin-2-yl)ethynyl)-2-fluorophenyl)-5-(fluoromethyl)-N,N-dimethyl-2-thia-4-azabicyclo[4.1.0]hept-3-ene-1-carboxamide]	969	77		2	22
COC[C@]12CC1[C@@](C)(c1cc(C#Cc3ccc(C#N)cn3)ccc1F)N=C(N)S2 (stereo partly drawn) [Example 133, 6-((3-((1S,5S)-3-amino-1-(methoxymethyl)-5-methyl-2-thia-4-azabicyclo[4.1.0]hept-3-en-5-yl)-4-fluorophenyl)ethynyl)nicotinonitrile]	> 400	2320		97	59
Cc1cn(C[C@]23C[C@H]2[C@@](CF)(c2cc(C#Cc4ccc(C#N)cn4)ccc2F)N=C(N)S3)nn1 [Example 115, 6-((3-((1S,5S,6S)-3-amino-5-(fluoromethyl)-1-((4-methyl-1H-1,2,3-triazol-1-yl)methyl)-2-thia-4-azabicyclo[4.1.0]hept-3-en-5-yl)-4-fluorophenyl)ethynyl)nicotinonitrile]	1030	2180	142	109	
Cc1cc(C#N)cnc1C#Cc1ccc(F)c([C@@]2(C)N=C(N)S[C@@]3(C(=O)N4CCCC4)C[C@H]32)c1 [Example 128, 6-((3-((1S,5S,6S)-3-amino-5-methyl-1-(pyrrolidine-1-carbonyl)-2-thia-4-azabicyclo[4.1.0]hept-3-en-5-yl)-4-fluorophenyl)ethynyl)-5-methylnicotinonitrile]	508	423		2	2
N#Cc1cnc(C#Cc2ccc(F)c([C@@]3(CF)N=C(N)S[C@@]4(CF)C[C@H]43)c2)s1 [Example 109, 2-((3-((1S,5S,6S)-3-amino-1,5-bis(fluoromethyl)-2-thia-4-azabicyclo[4.1.0]hept-3-en-5-yl)-4-fluorophenyl)ethynyl)thiazole-5-carbonitrile]	705	92	1110	57	
N#Cc1cnc(C#Cc2ccc(F)c([C@@]3(CF)N=C(N)S[C@@]4(CF)C[C@H]43)c2)cn1 [Example 103, 5-((3-((1S,5S,6S)-3-amino-1,5-bis(fluoromethyl)-2-thia-4-azabicyclo[4.1.0]hept-3-en-5-yl)-4-fluorophenyl)ethynyl)pyrazine-2-carbonitrile]	229	1590	3900	86	
C[C@]1(c2cc(C#Cc3ccc(C#N)cn3)cnc2F)N=C(N)S[C@@]2(CF)C[C@H]21 [Example 114, 6-((5-((1S,5S,6S)-3-amino-1-(fluoromethyl)-5-methyl-2-thia-4-azabicyclo[4.1.0]hept-3-en-5-yl)-6-fluoropyridin-3-yl)ethynyl)nicotinonitrile]	> 400	3370	677	637	
Cc1cc(C#N)cnc1C#Cc1cnc(F)c([C@@]2(C)N=C(N)S[C@@]3(C(=O)N4CCCC4)CC32)c1 (stereo partly drawn) [Example 137, 6-((5-((1S,5S)-3-amino-5-methyl-1-(pyrrolidine-1-carbonyl)-2-thia-4-azabicyclo[4.1.0]hept-3-en-5-yl)-6-fluoropyridin-3-yl)ethynyl)-5-methylnicotinonitrile]	> 400	474		11	35
CN(C)C(=O)[C@]12C[C@H]1[C@@](C)(c1cc(C#CC3CC3)ccc1F)N=C(N)S2 [Example 132, (1S,5S,6S)-3-amino-5-(5-(cyclopropylethynyl)-2-fluorophenyl)-N,N,5-trimethyl-2-thia-4-azabicyclo[4.1.0]hept-3-ene-1-carboxamide]	46.8	7	59	20	
Cc1cc(C#N)cnc1C#Cc1ccc(F)c([C@@]2(C)N=C(N)S[C@@]3(C(=O)N(C)C)C[C@H]32)c1 [Example 123, (1S,5S,6S)-3-amino-5-(5-((5-cyano-3-methyl-2-pyridinyl)ethynyl)-2-fluorophenyl)-N,N,5-trimethyl-2-thia-4-azabicyclo[4.1.0]hept-3-ene-1-carboxamide]	236	99	3	3	
COC[C@]12CC1[C@@](C)(c1cc(C#Cc3ncc(Cl)cc3C)ccc1F)N=C(N)S2 (stereo partly drawn) [Example 134, (1S,5S)-5-(5-((5-chloro-3-methylpyridin-2-yl)ethynyl)-2-fluorophenyl)-1-(methoxymethyl)-5-methyl-2-thia-4-azabicyclo[4.1.0]hept-3-en-3-amine]					951
